Where two headings read alike, the source gives them in different places.
Assays:
human recombinant GCL = human recombinant GCL (Homo sapiens (Human), UniProt P48506); test: GCL enzyme profiling assay (ADP-Glo luminescence); format: biochemical; conditions: read-out: GCL IC50
Protocol: The GCL enzyme assay was run in 50 mM HEPES, pH 7.5, containing 150 mM NaCl, 30 mM MgCl2, 0.5 mM EDTA, 1 mM DTT, 0.1 mg/mL BSA, and 0.02% or in the present case 0.2% F-127 in a total assay volume of 10 μL or 10 mL. Compound in pure DMSO was stamped in assay plates (Greiner black 384-well) or appropriate containers using a D300e digital dispenser (TECAN) and the final DMSO concentration was normalized to 1%. A 5 mL, or in the present case, 5 μL mixture of human recombinant GCL (final concentration: 5 nM) and ATP (final concentration: 0.6 mM) was added and the solution was incubated at room temperature (22° C.) for 1 h. The GCL enzyme reaction was initiated by addition of a 5 μL mixture of mono g-glutamate or in the present example, monosodium glutamate (final concentration: 1 mM) and a-aminobutyrate or α-aminobutyrate (final concentration: 1.2 mM). The reaction was stopped after 1 h or in the present case, 2 h by addition of 5 mL, or in the present case, 5 μL ADP GLO Reagent (Promega). The resulting solution was incubated for 2 h at room temperature. This was then followed by addition of 5 mL, or in the present case, 5 μL ADP GLO Detection. After incubation at room temperature for 30 min, the plates were read on a plate reader (PheraStar) using a luminescence protocol to quantify the GCL enzyme activity from each reaction solution. The data was analyzed using a four-parameter logistic equation to calculate IC50.

RKN cells = test: RKN cell profiling assay (cell viability, CellTiter-Glo); format: cell-based; conditions: read-out: Cell Killing EC50
Protocol: RKN cells were suspended in assay medium (F-12 medium supplemented with 10% FBS and penicillin/streptomycin) and seeded at 1,000 cells per well (30 μL total volume) in opaque white 384-well plates (Corning). Cells were allowed to adhere for 24 h at 37° C. (95% humidity, 5% CO2) and then exposed to compounds disclosed herein for 72 h, or in the present case, 96 h. DMSO stock solutions of compounds were added to cells using a D300e Digital Dispenser (Tecan). The final DMSO concentration in each well was normalized to 0.5% (v/v) after compound treatment. Cell viability was measured using CellTiter-Glo (Promega). After incubation for 15 min at room temperature, luminescence was measured using a PHERAstar FSX microplate reader (BMG Labtech). Ferroptosis rescue experiments were performed as described previously using cells treated with ferrostatin-1 (fer-1, 1.5 μM) when seeding assay plates. Dose-response data were analyzed to determine EC50 values with GraphPad Prism 9 software using a four-parameter logistic equation or CDD Vault (Collaborative Drug Discovery) using the Levenberg-Marquardt algorithm.

[1] = human recombinant GCL 5 nM, 1 h preincubation with ATP

Sequence of human recombinant GCL (P48506 whole entry): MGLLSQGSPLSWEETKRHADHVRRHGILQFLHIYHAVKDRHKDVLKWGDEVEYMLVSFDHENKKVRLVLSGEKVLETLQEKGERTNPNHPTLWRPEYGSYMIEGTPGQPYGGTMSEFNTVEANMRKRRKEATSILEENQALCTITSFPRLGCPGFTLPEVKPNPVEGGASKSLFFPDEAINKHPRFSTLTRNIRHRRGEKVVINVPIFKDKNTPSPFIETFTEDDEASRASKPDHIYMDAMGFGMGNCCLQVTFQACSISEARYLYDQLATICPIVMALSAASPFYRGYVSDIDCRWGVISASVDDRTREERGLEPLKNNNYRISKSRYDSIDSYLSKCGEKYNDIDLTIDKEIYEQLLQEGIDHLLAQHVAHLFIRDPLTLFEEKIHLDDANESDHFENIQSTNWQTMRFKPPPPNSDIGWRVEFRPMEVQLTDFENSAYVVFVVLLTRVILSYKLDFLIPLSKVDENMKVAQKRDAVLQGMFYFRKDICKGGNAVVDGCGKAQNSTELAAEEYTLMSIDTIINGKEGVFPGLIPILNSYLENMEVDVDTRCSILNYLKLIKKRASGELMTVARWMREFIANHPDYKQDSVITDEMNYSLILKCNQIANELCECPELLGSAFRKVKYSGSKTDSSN

| SMILES | IC50 (human recombinant GCL; human recombinant GCL, ADP-Glo) [µM] | EC50 (RKN cells; cell viability) [µM] | IC50 (human recombinant GCL; [1]) [µM] | EC50 (RKN cells; 96 h, 96 h exposure) [µM] |
| --- | --- | --- | --- | --- |
| COc1cc(OC(F)(F)F)ccc1-c1ccc(C(O)(CCS(=N)(=O)CC[C@H](N)C(=O)O)C(F)(F)F)cc1 (stereo partly drawn) [Compound 440] | ≤ 20 | < 1000 | – | – |
| COCC(C)(C)CCS(=N)(=O)CC[C@H](N)C(=O)O (stereo partly drawn) [Compound 321] | 20 to 2000 | < 1000 | – | – |
| CCCc1ccc(C(CCS(=N)(=O)CC[C@H](N)C(=O)O)C(F)(F)F)cc1 (stereo partly drawn) [Compound 223] | ≤ 20 | < 1000 | – | – |
| CC(C)(C)OC(=O)[C@@H](N)CC[S@](=N)(=O)CC[C@@H](O)C(F)(F)F [Compound 492] | > 2000 | ≥ 1000 | – | – |
| N=S(=O)(CCc1ccccc1Cl)CC[C@H](N)C(=O)O (stereo partly drawn) [Compound 19] | – | – | ≤ 20 | < 1000 |
| CNC(=O)C(CCS(=N)(=O)CC[C@H](N)C(=O)O)C(F)(F)F (stereo partly drawn) [Compound 307] | 20 to 2000 | < 1000 | – | – |
| COc1ccc(-c2ccc(C3(CCS(=N)(=O)CC[C@H](N)C(=O)O)CCC3)cc2)c(Cl)c1 (stereo partly drawn) [Compound 400] | ≤ 20 | < 1000 | – | – |
| N=S(=O)(CC[C@H](N)C(=O)O)CCC(O)(c1ccc(-c2ccccc2)cn1)C(F)(F)F (stereo partly drawn) [Compound 459, (2S)-2-amino-4-(4,4,4-trifluoro-3-hydroxy-3-(5-phenylpyridin-2-yl)butylsulfonimidoyl)butanoic acid] | ≤ 20 | < 1000 | – | – |
| N#Cc1cc(-c2ccc(C(O)(CCS(=N)(=O)CC[C@H](N)C(=O)O)C(F)(F)F)cc2)ccc1O (stereo partly drawn) [Compound 454] | ≤ 20 | ≥ 1000 | – | – |
| N=S(=O)(CC[C@H](N)C(=O)O)CCC1(c2ccc(-c3ccc(O)cc3Cl)cc2)CCC1 (stereo partly drawn) [Compound 401] | ≤ 20 | ≥ 1000 | – | – |
| CS(=O)(=O)c1ccc(-c2ccc(C(O)(CCS(=N)(=O)CC[C@H](N)C(=O)O)C(F)(F)F)cc2)c(Cl)c1 (stereo partly drawn) [Compound 442] | ≤ 20 | ≥ 1000 | – | – |
| CC(C)(C)CCS(=N)(=O)CC[C@H](N)C(=O)Nc1ccccc1 (stereo partly drawn) [Compound 118] | – | – | > 2000 | < 1000 |
| N=S(=O)(CC[C@H](N)C(=O)O)CCC(O)(C(=O)O)C(F)(F)F (stereo partly drawn) [Compound 333] | 20 to 2000 | ≥ 1000 | – | – |
| N[C@@H](CCS(=O)(=O)CCC(O)(c1cc(-c2ccccc2)sn1)C(F)(F)F)C(=O)O (stereo partly drawn) [Compound 377] | ≤ 20 | ≥ 1000 | – | – |
| Cc1cccc(Cl)c1CCS(=N)(=O)CC[C@H](N)C(=O)O (stereo partly drawn) [Compound 42] | – | – | 20 to 2000 | ≥ 1000 |
| COC(C)(C)CCCS(=N)(=O)CC[C@H](N)C(=O)O (stereo partly drawn) [Compound 295] | 20 to 2000 | ≥ 1000 | – | – |
| N=S(=O)(CC[C@H](N)C(=O)O)CCC(O)(C1CCCCC1)C(F)(F)F (stereo partly drawn) [Compound 355] | 20 to 2000 | ≥ 1000 | – | – |
| N=S(=O)(CC[C@H](N)C(=O)O)CCC(O)(c1ccc(-c2ccc(C(F)(F)F)cc2C(F)(F)F)cc1)C(F)(F)F (stereo partly drawn) [Compound 439] | ≤ 20 | < 1000 | – | – |
| Cc1ccc(Cl)c(CCS(=N)(=O)CC[C@H](N)C(=O)O)c1 (stereo partly drawn) [Compound 39] | – | – | ≤ 20 | ≥ 1000 |
| N=S(=O)(CCCC(F)(F)F)CC[C@H](N)C(=O)OC1CCOCC1 (stereo partly drawn) [Compound 84] | – | – | 20 to 2000 | < 1000 |
| N=S(=O)(CC[C@H](N)C(=O)O)CCC(O)(c1ccc(Oc2ccccc2)cn1)C(F)(F)F (stereo partly drawn) [Compound 372] | ≤ 20 | < 1000 | – | – |
| CCc1ccccc1CCS(=N)(=O)CC[C@H](N)C(=O)O (stereo partly drawn) [Compound 33] | – | – | ≤ 20 | ≥ 1000 |
| N[C@@H](CCS(=O)(=O)CCC(O)(c1ccccn1)C(F)(F)F)C(=O)O (stereo partly drawn) [Compound 351, (2S)-2-amino-4-((4,4,4-trifluoro-3-hydroxy-3-(pyridin-2-yl)butyl)sulfonyl)butanoic acid] | ≤ 20 | ≥ 1000 | – | – |
| CCCCNC(=O)[C@@H](N)CCS(=N)(=O)CCCC(F)(F)F (stereo partly drawn) [Compound 131] | – | – | > 2000 | < 1000 |
| N=S(=O)(CCC(C(N)=O)C(F)(F)F)CC[C@H](N)C(=O)O (stereo partly drawn) [Compound 308] | 20 to 2000 | < 1000 | – | – |
| N=S(=O)(CCOCC(F)(F)F)CC[C@H](N)C(=O)O (stereo partly drawn) [Compound 175] | – | – | 20 to 2000 | ≥ 1000 |

| SMILES | IC50 (human recombinant GCL; human recombinant GCL, ADP-Glo) [µM] | EC50 (RKN cells; cell viability) [µM] | IC50 (human recombinant GCL; [1]) [µM] | EC50 (RKN cells; 96 h, 96 h exposure) [µM] |
| --- | --- | --- | --- | --- |
| CCCCOC(=O)[C@@H](N)CCS(=N)(=O)CCC1CCCC1 (stereo partly drawn) [Compound 77] | – | – | > 2000 | < 1000 |
| N=S(=O)(CC[C@H](N)C(=O)O)CCC12CC(C1)C2 (stereo partly drawn) [Compound 294] | ≤ 20 | < 1000 | – | – |
| CCCCOC(=O)[C@@H](N)CCS(=N)(=O)CCCC(F)(F)F (stereo partly drawn) [Compound 79] | – | – | > 2000 | < 1000 |
| N=S(=O)(CCc1ccc(C(F)(F)F)cc1C(F)(F)F)CC[C@H](N)C(=O)O (stereo partly drawn) [Compound 36] | – | – | ≤ 20 | < 1000 |
| N=S(=O)(CCC(c1ccc(-c2cncc(F)c2)cc1)C(F)(F)F)CC[C@H](N)C(=O)O (stereo partly drawn) [Compound 247] | ≤ 20 | ≥ 1000 | – | – |
| N=S(=O)(CCc1cccc(OC(F)(F)F)c1)CC[C@H](N)C(=O)O (stereo partly drawn) [Compound 4] | – | – | 20 to 2000 | ≥ 1000 |
| CN(C)C(=O)[C@@H](N)CCS(=N)(=O)CCC(C)(C)C (stereo partly drawn) [Compound 115] | – | – | > 2000 | ≥ 1000 |
| CC(CCS(=N)(=O)CC[C@H](N)C(=O)O)(c1ccccc1)C(F)(F)F (stereo partly drawn) [Compound 293] | ≤ 20 | ≥ 1000 | – | – |
| N=S(=O)(CC[C@H](N)C(=O)O)CCC(O)(C1CCCC1)C(F)(F)F (stereo partly drawn) [Compound 356] | 20 to 2000 | ≥ 1000 | – | – |
| CCCCS(=N)(=O)CC[C@H](NC)C(=O)O (stereo partly drawn) [Compound 159] | – | – | > 2000 | ≥ 1000 |
| COC(=O)[C@@H](N)CCS(=N)(=O)CCC1CCCC1 (stereo partly drawn) [Compound 74] | – | – | 20 to 2000 | < 1000 |
| CC(C)(C)OC(=O)[C@@H](N)CC[S@@](=N)(=O)CC[C@H](O)C(F)(F)F [Compound 489, tert-butyl (S)-2-amino-4-((R,3S)-4,4,4-trifluoro-3-hydroxybutylsulfonimidoyl)butanoate] | > 2000 | ≥ 1000 | – | – |
| CCCCS(=N)(=O)CC[C@H](N)C(=O)NCC(N)=O (stereo partly drawn) [Compound 112] | – | – | 20 to 2000 | ≥ 1000 |
| N=S(=O)(CC[C@H](N)C(=O)O)CCC1(c2ccc3[nH]cnc3c2)CCC1 (stereo partly drawn) [Compound 396] | 20 to 2000 | ≥ 1000 | – | – |
| N=S(=O)(CCc1cccc2c1OC(F)(F)O2)CC[C@H](N)C(=O)O (stereo partly drawn) [Compound 18] | – | – | 20 to 2000 | ≥ 1000 |
| N=S(=O)(CCCC(O)(c1ccc(-c2ccccc2)cc1)C(F)(F)F)CC[C@H](N)C(=O)O (stereo partly drawn) [Compound 335] | 20 to 2000 | ≥ 1000 | – | – |
| N=S(=O)(CC[C@H](N)C(=O)O)CCC(O)(c1ccc(Oc2ccc(Cl)cc2Cl)cn1)C(F)(F)F (stereo partly drawn) [Compound 380] | ≤ 20 | < 1000 | – | – |
| CC1(CCS(=N)(=O)CC[C@H](N)C(=O)O)CCCCC1 (stereo partly drawn) [Compound 300] | 20 to 2000 | ≥ 1000 | – | – |
| N=[S@SP2](=O)(CCC(N)C(=O)O)CCC(c1ccccc1)(C(F)(F)F)C(F)(F)F (stereo not drawn) [compound 508] | 20 to 2000 | ≥ 1000 | – | – |
| N[C@H]1CCS(=O)(CCCC(F)(F)F)=NC1=O (stereo partly drawn) [Compound 202, (1S,4R)-4-amino-1-(4,4,4-trifluorobutyl)-5,6-dihydro-1,2-thiazin-3 (4H)-one 1-oxide] | – | – | 20 to 2000 | < 1000 |
| N=S(=O)(CCc1ccc(Cl)c(Cl)c1)CC[C@H](N)C(=O)O (stereo partly drawn) [Compound 13] | – | – | ≤ 20 | ≥ 1000 |
| Cc1ccn(C(CCS(=N)(=O)CC[C@H](N)C(=O)O)C(F)(F)F)n1 (stereo partly drawn) [Compound 412] | 20 to 2000 | ≥ 1000 | – | – |
| N=S(=O)(CCC1CCOCC1)CC[C@H](N)C(=O)O (stereo partly drawn) [Compound 157] | – | – | 20 to 2000 | ≥ 1000 |
| N#CC1CC=C(c2ccc(C(CCS(=N)(=O)CC[C@H](N)C(=O)O)C(F)(F)F)cc2)CC1 (stereo partly drawn) [Compound 214, (2S)-2-amino-4-(3-(4′-cyano-2′,3′,4′,5′-tetrahydro-[1,1′-biphenyl]-4-yl)-4,4,4-trifluorobutylsulfonimidoyl)butanoic acid] | ≤ 20 | ≥ 1000 | – | – |
| CCCCS(=N)(=O)CC[C@H](N)C(=O)OC(C)(C)C (stereo partly drawn) [Compound 483] | 20 to 2000 | ≥ 1000 | – | – |

From patent US20260034094A1, “COMPOSITIONS AND METHODS FOR INDUCING FERROPTOSIS” (Kojin Therapeutics, Inc., priority 2022, published 2026)
